From ChEMBL document CHEMBL1201862, “PubChem BioAssay data set” (2004)
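Five compound concentrations were applied to cells in 96-well plates for 48 hours; endpoints were derived by simple linear interpolation of the resulting dose-response curve. GI50 = concentration required for 50% inhibition of growth.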 The source made the active and inactive calls. No stated cut-off is given here; in the data, active = GI50 up to about 1.1 µM and inactive = higher.

What was measured:
Experiment in all cases: NCI anticancer screen, dose series, 48 h
NCI-H522 = system: NCI-H522
HCT-116 = system: HCT-116
CCRF-CEM = system: CCRF-CEM
SK-OV-3 = system: SK-OV-3
SN12C = system: SN12C
MCF7 = system: MCF7
OVCAR-4 = system: OVCAR-4
PC-3 = system: PC-3
HCC 2998 = system: HCC 2998
ACHN = system: ACHN
TK-10 = system: TK-10
U-251 = system: U-251
HL-60 = system: HL-60
OVCAR-3 = system: OVCAR-3
A549 = system: A549
Hs-578T = system: Hs-578T
OVCAR-8 = system: OVCAR-8
SK-MEL-2 = system: SK-MEL-2
Malme-3M = system: Malme-3M
RXF 393 = system: RXF 393
LOX IMVI = system: LOX IMVI
SK-MEL-5 = system: SK-MEL-5
UACC-257 = system: UACC-257
KM12 = system: KM12
SNB-19 = system: SNB-19
HOP-92 = system: HOP-92
SR = system: SR
NCI/ADR-RES = system: NCI/ADR-RES
NCI-H226 = system: NCI-H226
CAKI-1 = system: CAKI-1
SK-MEL-28 = system: SK-MEL-28
COLO 205 = system: COLO 205
MOLT-4 = system: MOLT-4
OVCAR-5 = system: OVCAR-5
UACC-62 = system: UACC-62
SNB-75 = system: SNB-75
MDA-MB-231 = system: MDA-MB-231
DU-145 = system: DU-145
SW-620 = system: SW-620
A498 = system: A498
SF-295 = system: SF-295
SF-268 = system: SF-268
IGROV-1 = system: IGROV-1
RPMI-8226 = system: RPMI-8226
HOP-62 = system: HOP-62
NCI-H460 = system: NCI-H460
M14 = system: M14
MDA-MB-435 = system: MDA-MB-435
786-0 = system: 786-0
BT-549 = system: BT-549
HT-29 = system: HT-29
EKVX = system: EKVX
K562 = system: K562
HCT-15 = system: HCT-15
T47D = system: T47D
SF-539 = system: SF-539
NCI-H23 = system: NCI-H23
UO-31 = system: UO-31
MDA-N = system: MDA-N

## CCOC(=O)c1c(-c2ccccc2)oc(=O)c(Cc2cccc3cccnc23)c1-c1ccccc1
NCI-H522
  GI50: > 10 µM (inactive)
HCT-116
  GI50: > 10 µM (inactive)
CCRF-CEM
  GI50: > 10 µM (inactive)
SK-OV-3
  GI50: > 10 µM (inactive)
SN12C
  GI50: > 10 µM (inactive)
MCF7
  GI50: > 10 µM (inactive)
OVCAR-4
  GI50: > 10 µM (inactive)
PC-3
  GI50: 9.55 µM (inactive)
HCC 2998
  GI50: > 10 µM (inactive)
ACHN
  GI50: > 10 µM (inactive)
TK-10
  GI50: > 10 µM (inactive)
U-251
  GI50: > 10 µM (inactive)
HL-60
  GI50: > 10 µM (inactive)
OVCAR-3
  GI50: > 10 µM (inactive)
A549
  GI50: > 10 µM (inactive)
Hs-578T
  GI50: > 10 µM (inactive)
OVCAR-8
  GI50: > 10 µM (inactive)
SK-MEL-2
  GI50: > 10 µM (inactive)
Malme-3M
  GI50: > 10 µM (inactive)
RXF 393
  GI50: > 10 µM (inactive)
LOX IMVI
  GI50: > 10 µM (inactive)
SK-MEL-5
  GI50: > 10 µM (inactive)
UACC-257
  GI50: > 10 µM (inactive)
KM12
  GI50: > 10 µM (inactive)
SNB-19
  GI50: > 10 µM (inactive)
HOP-92
  GI50: > 10 µM (inactive)
SR
  GI50: > 10 µM (inactive)
NCI/ADR-RES
  GI50: > 10 µM (inactive)
NCI-H226
  GI50: > 10 µM (inactive)
CAKI-1
  GI50: > 10 µM (inactive)
SK-MEL-28
  GI50: > 10 µM (inactive)
COLO 205
  GI50: > 10 µM (inactive)
MOLT-4
  GI50: > 10 µM (inactive)
OVCAR-5
  GI50: > 10 µM (inactive)
UACC-62
  GI50: > 10 µM (inactive)
SNB-75
  GI50: > 10 µM (inactive)
MDA-MB-231
  GI50: > 10 µM (inactive)
DU-145
  GI50: > 10 µM (inactive)
SW-620
  GI50: > 10 µM (inactive)
A498
  GI50: > 10 µM (inactive)
SF-295
  GI50: > 10 µM (inactive)
SF-268
  GI50: > 10 µM (inactive)
IGROV-1
  GI50: > 10 µM (inactive)
RPMI-8226
  GI50: > 10 µM (inactive)
HOP-62
  GI50: > 10 µM (inactive)
NCI-H460
  GI50: > 10 µM (inactive)
M14
  GI50: > 10 µM (inactive)
MDA-MB-435
  GI50: > 10 µM (inactive)
786-0
  GI50: > 10 µM (inactive)
BT-549
  GI50: > 10 µM (inactive)
HT-29
  GI50: > 10 µM (inactive)
EKVX
  GI50: > 10 µM (inactive)
K562
  GI50: > 10 µM (inactive)
HCT-15
  GI50: > 10 µM
T47D
  GI50: > 10 µM (inactive)
SF-539
  GI50: > 10 µM (inactive)
NCI-H23
  GI50: > 10 µM (inactive)
UO-31
  GI50: > 10 µM (inactive)

## Cc1cc(C)nc(NS(=O)(=O)c2ccc(NC(=O)c3ccc4nc5ccccc5c(Nc5ccc(S(N)(=O)=O)cc5)c4c3)cc2)n1
NCI-H522
  GI50: 34.2 µM (inactive)
HCT-116
  GI50: > 100 µM (inactive)
CCRF-CEM
  GI50: 28.2 µM (inactive)
SK-OV-3
  GI50: > 100 µM (inactive)
SN12C
  GI50: > 100 µM (inactive)
MCF7
  GI50: 49.2 µM (inactive)
OVCAR-4
  GI50: 83.8 µM (inactive)
PC-3
  GI50: > 100 µM (inactive)
HCC 2998
  GI50: > 100 µM (inactive)
ACHN
  GI50: > 100 µM (inactive)
TK-10
  GI50: > 100 µM (inactive)
U-251
  GI50: 59 µM (inactive)
HL-60
  GI50: 57.9 µM (inactive)
OVCAR-3
  GI50: 48.5 µM (inactive)
A549
  GI50: > 100 µM (inactive)
Hs-578T
  GI50: 91.2 µM (inactive)
OVCAR-8
  GI50: > 100 µM (inactive)
SK-MEL-2
  GI50: 42.9 µM (inactive)
Malme-3M
  GI50: 93.3 µM (inactive)
RXF 393
  GI50: 33 µM (inactive)
LOX IMVI
  GI50: 45.6 µM (inactive)
SK-MEL-5
  GI50: > 100 µM (inactive)
UACC-257
  GI50: > 100 µM (inactive)
KM12
  GI50: 65.8 µM (inactive)
SNB-19
  GI50: > 100 µM (inactive)
HOP-92
  GI50: 51.3 µM (inactive)
SR
  GI50: 40.1 µM (inactive)
NCI/ADR-RES
  GI50: > 100 µM (inactive)
NCI-H226
  GI50: > 100 µM (inactive)
CAKI-1
  GI50: > 100 µM (inactive)
SK-MEL-28
  GI50: 86.7 µM (inactive)
COLO 205
  GI50: > 100 µM (inactive)
MOLT-4
  GI50: 50.6 µM (inactive)
OVCAR-5
  GI50: > 100 µM (inactive)
UACC-62
  GI50: > 100 µM (inactive)
SNB-75
  GI50: > 100 µM (inactive)
MDA-MB-231
  GI50: 94.2 µM (inactive)
DU-145
  GI50: > 100 µM (inactive)
SW-620
  GI50: > 100 µM (inactive)
SF-295
  GI50: > 100 µM (inactive)
SF-268
  GI50: > 100 µM (inactive)
IGROV-1
  GI50: > 100 µM (inactive)
RPMI-8226
  GI50: 64.1 µM (inactive)
HOP-62
  GI50: > 100 µM (inactive)
NCI-H460
  GI50: > 100 µM (inactive)
M14
  GI50: > 100 µM (inactive)
MDA-MB-435
  GI50: > 100 µM (inactive)
786-0
  GI50: > 100 µM (inactive)
BT-549
  GI50: 28.2 µM (inactive)
HT-29
  GI50: 75.3 µM (inactive)
EKVX
  GI50: > 100 µM (inactive)
K562
  GI50: 40 µM (inactive)
HCT-15
  GI50: > 100 µM
T47D
  GI50: > 100 µM (inactive)
SF-539
  GI50: > 100 µM (inactive)
NCI-H23
  GI50: > 100 µM (inactive)
UO-31
  GI50: > 100 µM (inactive)

## COc1cccc(C2c3cc4c(cc3OC3COC(=O)C32)OCO4)c1OC (stereo unspecified)
HCT-116
  GI50: 20.2 µM (inactive)
CCRF-CEM
  GI50: > 100 µM (inactive)
SK-OV-3
  GI50: 57.8 µM (inactive)
SN12C
  GI50: > 100 µM (inactive)
MCF7
  GI50: 83 µM (inactive)
OVCAR-4
  GI50: 64.6 µM (inactive)
PC-3
  GI50: > 100 µM (inactive)
HCC 2998
  GI50: > 100 µM (inactive)
ACHN
  GI50: > 100 µM (inactive)
TK-10
  GI50: > 100 µM (inactive)
HL-60
  GI50: 9.12 µM (inactive)
OVCAR-3
  GI50: > 100 µM (inactive)
A549
  GI50: > 100 µM (inactive)
Hs-578T
  GI50: 32.7 µM (inactive)
OVCAR-8
  GI50: > 100 µM (inactive)
SK-MEL-2
  GI50: 49.4 µM (inactive)
Malme-3M
  GI50: > 100 µM (inactive)
RXF 393
  GI50: 83.4 µM (inactive)
LOX IMVI
  GI50: > 100 µM (inactive)
SK-MEL-5
  GI50: > 100 µM (inactive)
UACC-257
  GI50: > 100 µM (inactive)
KM12
  GI50: > 100 µM (inactive)
SNB-19
  GI50: > 100 µM (inactive)
HOP-92
  GI50: 99.8 µM (inactive)
NCI/ADR-RES
  GI50: > 100 µM (inactive)
NCI-H226
  GI50: > 100 µM (inactive)
CAKI-1
  GI50: 37.6 µM (inactive)
SK-MEL-28
  GI50: > 100 µM (inactive)
COLO 205
  GI50: > 100 µM (inactive)
MOLT-4
  GI50: > 100 µM (inactive)
OVCAR-5
  GI50: > 100 µM (inactive)
UACC-62
  GI50: 68.2 µM (inactive)
SNB-75
  GI50: 83.9 µM (inactive)
MDA-MB-231
  GI50: > 100 µM (inactive)
DU-145
  GI50: > 100 µM (inactive)
SW-620
  GI50: > 100 µM (inactive)
A498
  GI50: > 100 µM (inactive)
SF-295
  GI50: > 100 µM (inactive)
SF-268
  GI50: > 100 µM (inactive)
IGROV-1
  GI50: > 100 µM (inactive)
HOP-62
  GI50: 61.1 µM (inactive)
NCI-H460
  GI50: > 100 µM (inactive)
M14
  GI50: > 100 µM (inactive)
786-0
  GI50: > 100 µM (inactive)
BT-549
  GI50: > 100 µM (inactive)
HT-29
  GI50: > 100 µM (inactive)
EKVX
  GI50: > 100 µM (inactive)
MDA-N
  GI50: 3.93 µM (inactive)
HCT-15
  GI50: 34.8 µM
SF-539
  GI50: > 100 µM (inactive)
UO-31
  GI50: > 100 µM (inactive)
